Tested on: 958767-090-R-J1-PDC spheroid growth
Assay: Anticancer human tumor 958767-090-R-J1-PDC patient-derived head and neck squamous carcinoma cell line growth inhibition [IpAb]
Conditions: spheroids with HUVEC and MSC; for IC50: curve of first compound; for viability, T/C: stronger effect = lower value
Procedure, shortened: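 Multi-cell spheroids of 60% tumour cells, 25% HUVEC and 15% MSC in ultra-low-attachment U-bottom wells, treated with agents combined with ipatasertib or abemaciclib. Half-log ranges top out near clinical Cmax, or 10 microM when Cmax is unknown.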

[1] = second compound 0.01 µM, first compound 0.0316 µM
[2] = second compound 0.01 µM, first compound 0.1 µM
[3] = second compound 0.0316 µM, first compound 0.0316 µM
[4] = second compound 0.0316 µM, first compound 0.1 µM
[5] = second compound 0.1 µM, first compound 0.0316 µM
[6] = second compound 0.1 µM, first compound 0.1 µM
[7] = second compound 0.316 µM, first compound 0.0316 µM
[8] = second compound 0.316 µM, first compound 0.1 µM
[9] = second compound 1 µM, first compound 0.0316 µM
[10] = second compound 1 µM, first compound 0.1 µM
[11] = second compound 0.01 µM, first compound 0.316 µM
[12] = second compound 0.01 µM, first compound 1 µM
[13] = second compound 0.01 µM, first compound 3.16 µM
[14] = second compound 0.01 µM, first compound 10 µM
[15] = second compound 0.0316 µM, first compound 0.316 µM
[16] = second compound 0.0316 µM, first compound 1 µM
[17] = second compound 0.0316 µM, first compound 3.16 µM
[18] = second compound 0.0316 µM, first compound 10 µM
[19] = second compound 0.1 µM, first compound 0.316 µM
[20] = second compound 0.1 µM, first compound 1 µM
[21] = second compound 0.1 µM, first compound 3.16 µM
[22] = second compound 0.1 µM, first compound 10 µM
[23] = second compound 0.316 µM, first compound 0.316 µM
[24] = second compound 0.316 µM, first compound 1 µM
[25] = second compound 0.316 µM, first compound 3.16 µM
[26] = second compound 0.316 µM, first compound 10 µM
[27] = second compound 1 µM, first compound 0.316 µM
[28] = second compound 1 µM, first compound 1 µM
[29] = second compound 1 µM, first compound 3.16 µM
[30] = second compound 1 µM, first compound 10 µM
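Note: spheroids exposed to agents for 7 days.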
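Throughout, for viability, T/C: 100% = DMSO vehicle control wells.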

| SMILES | IC50 (second compound 0.01 µM) [µM] | IC50 (second compound 0.0316 µM) [µM] | IC50 (second compound 0.1 µM) [µM] | IC50 (second compound 0.316 µM) [µM] | IC50 (second compound 1 µM) [µM] | viability, T/C [1] [%] | viability, T/C [2] [%] | viability, T/C [3] [%] | viability, T/C [4] [%] | viability, T/C [5] [%] | viability, T/C [6] [%] | viability, T/C [7] [%] | viability, T/C [8] [%] | viability, T/C [9] [%] | viability, T/C [10] [%] | viability, T/C [11] [%] | viability, T/C [12] [%] | viability, T/C [13] [%] | viability, T/C [14] [%] | viability, T/C [15] [%] | also measured |
| --- | --- | --- | --- | --- | --- | --- | --- | --- | --- | --- | --- | --- | --- | --- | --- | --- | --- | --- | --- | --- | --- |
| CC(C)n1nc(-c2ccc3oc(N)nc3c2)c2c(N)ncnc21 + CCN1CCN(Cc2ccc(Nc3ncc(F)c(-c4cc(F)c5nc(C)n(C(C)C)c5c4)n3)nc2)CC1 | 0.0157 | 0.0135 | 0.0228 | 0.0248 | > 0.1 | 39.2 | 33.8 | 40.5 | 36.7 | 45.5 | 35.4 | 48.8 | 40 | 65.5 | 50.7 | – | – | – | – | – | viability, T/C (second compound 0.01 µM, first compound 0.000316 µM): 91.4%; viability, T/C (second compound 0.01 µM, first compound 0.001 µM): 92.4%; viability, T/C (second compound 0.01 µM, first compound 0.00316 µM): 84.2%; viability, T/C (second compound 0.01 µM, first compound 0.01 µM): 57.2%; viability, T/C (second compound 0.0316 µM, first compound 0.000316 µM): 79.5%; viability, T/C (second compound 0.0316 µM, first compound 0.001 µM): 80.5%; viability, T/C (second compound 0.0316 µM, first compound 0.00316 µM): 82.6%; viability, T/C (second compound 0.0316 µM, first compound 0.01 µM): 54.1%; viability, T/C (second compound 0.1 µM, first compound 0.000316 µM): 68.7%; viability, T/C (second compound 0.1 µM, first compound 0.001 µM): 73.1%; viability, T/C (second compound 0.1 µM, first compound 0.00316 µM): 70.3%; viability, T/C (second compound 0.1 µM, first compound 0.01 µM): 61.6%; viability, T/C (second compound 0.316 µM, first compound 0.000316 µM): 70.6%; viability, T/C (second compound 0.316 µM, first compound 0.001 µM): 56.9%; viability, T/C (second compound 0.316 µM, first compound 0.00316 µM): 66.1%; viability, T/C (second compound 0.316 µM, first compound 0.01 µM): 54.1%; viability, T/C (second compound 1 µM, first compound 0.000316 µM): 78.3%; viability, T/C (second compound 1 µM, first compound 0.001 µM): 75.9%; viability, T/C (second compound 1 µM, first compound 0.00316 µM): 64.8%; viability, T/C (second compound 1 µM, first compound 0.01 µM): 68.4% |
| CC1(C)CCC(CN2CCN(c3ccc(C(=O)NS(=O)(=O)c4ccc(NCC5CCOCC5)c([N+](=O)[O-])c4)c(Oc4cnc5[nH]ccc5c4)c3)CC2)=C(c2ccc(Cl)cc2)C1 + CCN1CCN(Cc2ccc(Nc3ncc(F)c(-c4cc(F)c5nc(C)n(C(C)C)c5c4)n3)nc2)CC1 | 5.78 | 4.93 | 4.09 | 3.89 | 4.05 | 88.7 | 90.8 | 75.5 | 83.4 | 63.5 | 60.7 | 57 | 50.6 | 61.2 | 61.3 | 71.5 | 95.8 | 121 | 10.4 | 59.4 | viability, T/C [16]: 70.9%; viability, T/C [17]: 102%; viability, T/C [18]: 5.08%; viability, T/C [19]: 66.6%; viability, T/C [20]: 50.3%; viability, T/C [21]: 70%; viability, T/C [22]: 7.55%; viability, T/C [23]: 57.2%; viability, T/C [24]: 57.2%; viability, T/C [25]: 79.2%; viability, T/C [26]: 3.5%; viability, T/C [27]: 59.8%; viability, T/C [28]: 59.6%; viability, T/C [29]: 70.9%; viability, T/C [30]: 4.55% |
| CCCS(=O)(=O)Nc1ccc(F)c(C(=O)c2c[nH]c3ncc(-c4ccc(Cl)cc4)cc23)c1F + CCN1CCN(Cc2ccc(Nc3ncc(F)c(-c4cc(F)c5nc(C)n(C(C)C)c5c4)n3)nc2)CC1 | > 10 | 9.2 | 8.26 | > 10 | > 10 | 93.1 | 93.6 | 88.5 | 93.2 | 83.3 | 82 | 66.1 | 54.8 | 89.5 | 78.6 | 91.4 | 93.7 | 87.7 | 60.2 | 92.1 | viability, T/C [16]: 73.6%; viability, T/C [17]: 62%; viability, T/C [18]: 48.3%; viability, T/C [19]: 82.9%; viability, T/C [20]: 70.8%; viability, T/C [21]: 71.7%; viability, T/C [22]: 45.6%; viability, T/C [23]: 56.7%; viability, T/C [24]: 67.8%; viability, T/C [25]: 67.1%; viability, T/C [26]: 44.4%; viability, T/C [27]: 74.9%; viability, T/C [28]: 79.5%; viability, T/C [29]: 69.5%; viability, T/C [30]: 51.9% |

From PubChem BioAssay AID2060336 (Molecular Pharmacology Branch, DTP, NCI, 2025)
